The target in one experiment is T1, PeiP (Methanobacterium phage psiM2, UniProt Q77WJ4).
T1 construct: N-terminal His-tag kept, pET151D, E. coli BL21-Rosetta 2; 338 residues and 39,537 Da with tag; monomer
Kind of experiment: inhibition of EγApNA hydrolysis, […] nm, […] min preincubation. It is filed as biochemical. The conditions noted are these: read-out: % inhibition at 1 mM.

In another experiment the target is T2, PeiW (Methanothermobacter phage psiM100, UniProt Q7LYX0).
T2 construct: N-terminal His-tag kept, pET151D, E. coli BL21-Rosetta 2; 317 residues and 37,219 Da with tag; monomer
The description is as above. The conditions noted are these: for inhibition at 1000 µM: read-out: % inhibition at 1 mM. It is filed as biochemical.

T2 sequence (Q7LYX0 whole entry): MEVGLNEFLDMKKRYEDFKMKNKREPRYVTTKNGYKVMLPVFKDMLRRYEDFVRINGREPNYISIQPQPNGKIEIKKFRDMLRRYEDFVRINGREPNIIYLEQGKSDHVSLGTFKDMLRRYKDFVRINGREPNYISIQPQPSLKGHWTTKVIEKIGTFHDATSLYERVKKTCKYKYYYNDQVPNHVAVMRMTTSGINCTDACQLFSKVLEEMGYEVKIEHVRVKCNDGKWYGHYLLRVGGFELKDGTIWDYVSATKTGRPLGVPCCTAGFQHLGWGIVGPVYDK
T1 sequence (Q77WJ4 whole entry): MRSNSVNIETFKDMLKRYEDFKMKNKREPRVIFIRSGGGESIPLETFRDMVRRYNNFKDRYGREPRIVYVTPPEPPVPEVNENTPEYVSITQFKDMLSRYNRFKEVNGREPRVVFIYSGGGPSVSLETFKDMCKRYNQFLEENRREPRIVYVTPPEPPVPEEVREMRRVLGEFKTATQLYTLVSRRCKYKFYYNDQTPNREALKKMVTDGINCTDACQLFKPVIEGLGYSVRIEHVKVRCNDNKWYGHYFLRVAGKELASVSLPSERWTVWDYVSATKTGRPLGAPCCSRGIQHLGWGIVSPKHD

On to `NCCSSCCN` [Cystamine], for which the inhibition at 1000 µM at PeiP and at PeiW was 100% throughout.

In the case of `CN(C)c1cccc2c(S(=O)(=O)NCCCCCN)cccc12` [Dansylcadaverine], the figures for the inhibition at 1000 µM at PeiP and at PeiW were 50% and 60%, respectively. With `CC(C)C[C@H](NC(=O)[C@@H]1O[C@H]1C(=O)O)C(=O)NCCCCNC(=N)N` [E64], the inhibition at 1000 µM was 30% at PeiP and 10% at PeiW. Consider `O=S(=O)(F)Cc1ccccc1` [PMSF], for which, on PeiW (60 °C, pH 7.85, 10 mM CaCl2, 10 mM TCEP), the “% inhibition at 1 mM” value is 10%.

In general, inhibition refers to the relative decrease from the control value, in per cent. What is called % inhibition is the share of the control response that was lost under treatment. A high value points to a response far below the control.

The values are drawn from publication PMC4592898, “Biochemical Characterisation of Phage Pseudomurein Endoisopeptidases PeiW and PeiP Using Synthetic Peptides” (Archaea, 2015).
